Source: patent publication US20030166629A1, “Cyclic quaternary ammonium compounds” (priority 1999, published 2003)

Tested on: citric acid-induced cough responses
Assay: Antitussive activity against citric acid aerosol-induced cough in conscious guinea-pigs
Format: in vivo, guinea-pig
Conditions: aerosol pre-treatment at 5.0 mg/ml for 5 minutes immediately before citric acid (1M) exposure, vehicle 25% ethanol, 15 minute observation period
Source text: The following method is one of the general methods available to determine the antitussive activity of the compounds of the present invention.
Male albino Dunkin-Hartley strain guinea-pigs (weight 300-400 g) can be obtained from various commercial suppliers.
The method is a modification of that described by Adcock J. J., Schneider C. and Smith T. W., “Effects of Morphine and a Novel Opioid Pentapeptide BW443C, on Cough, Nociception and Ventilation in the Unanaesthetized Guinea-pig”, Br. J. Pharmacol., 93, 93-100 (1988). […]
Cylinder air is introduced into the exposure chamber at a flow rate of 1 liter/min, maintained by a needle valve and monitored by a rotameter. […]
Cough responses are induced by exposure to an aerosol of citric acid (1M) for 10 minutes. Animals are continuously monitored by trained observer, and the number of coughs are counted during a 15 minute period from commencement of the citric acid aerosol administration. […]
The three types of response are differentiated primarily by sound and visual observation. […] Each cough is marked on the Grass polygraph paper trace, and from these record numbers, frequency and time of onset of coughs are determined. […]
Quantities of drugs are weighed out and dissolved in a vehicle. […] The sequence of pre-treatment administration is determined according to a 4×4 Latin Square design. […]

Structure (SMILES): CCCCC[N+]1(C)CCCCC1C(=O)Nc1c(C)cccc1C.[I-] (stereo not shown) [N-methyl-bupivacaine iodide, 2-{[(2,6-Dimethylphenyl)amino]carbonyl}-1-methyl-1-pentylpiperidinium iodide]
- inhibition of cough responses compared with vehicle pre-treated guinea pigs: > 90%
